From ChEMBL document CHEMBL1201862, “PubChem BioAssay data set” (2004)
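Exposure lasted 48 hours, with cells grown in 96-well plates and compounds tested at five concentrations. GI50 = concentration required for 50% inhibition of growth.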 Activity calls are given as the source filed them. No stated cut-off is given here; in the data, active = GI50 up to about 1.1 µM and inactive = higher.

Key:
Experiment in all cases: inhibition of tumour cell growth, NCI panel, 48 h
[1] = system: NCI-H460
[2] = system: SF-295
[3] = system: HL-60
[4] = system: BT-549
[5] = system: MDA-MB-435
[6] = system: KM-20L2
[7] = system: UO-31
[8] = system: PC-3
[9] = system: SK-MEL-28
[10] = system: M14
[11] = system: MDA-N
[12] = system: KM12
[13] = system: M19-MEL
[14] = system: MOLT-4
[15] = system: NCI-H23
[16] = system: XF498
[17] = system: OVCAR-5
[18] = system: CAKI-1

Measured: GI50

COc1ccc(C(=O)/C(Br)=C/C(=O)O)cc1
inactive: [1] 23.2 µM | [2] 37.9 µM | [3] 27.5 µM | [4] 17.9 µM | [5] 25.8 µM | [6] 29.5 µM | [7] 37.2 µM | [8] 29.7 µM | [9] 23.3 µM | [10] 26.2 µM | [11] 20 µM | [12] 14.7 µM | [13] 14.5 µM | [14] 17.6 µM | [15] 26.8 µM | [16] 4.28 µM | [17] 42.1 µM | [18] 39.3 µM

CC(=O)C(C(=O)C(=O)Nc1cc(Cl)c(Cl)cc1Cl)c1csc(N)n1 (stereo not given)
inactive: [1] > 100 µM | [2] > 100 µM | [3] > 100 µM | [6] > 100 µM | [7] > 100 µM | [9] > 100 µM | [10] > 100 µM | [12] > 100 µM | [13] > 100 µM | [14] > 100 µM | [15] > 100 µM | [16] > 100 µM | [17] > 100 µM | [18] > 100 µM

C=C1C(=O)OC2C1CC1OC2C(C)CCC/C(C)=C\CCC1(C)O (stereo not given)
inactive: [1] 20.1 µM | [2] 37.5 µM | [3] 5.61 µM | [6] 29.7 µM | [7] 32.3 µM | [9] 16.4 µM | [12] 19.8 µM | [13] 10.1 µM | [14] 8.15 µM | [15] 9.25 µM | [16] 12 µM | [17] 69.2 µM | [18] 18.6 µM
